In patent US20230127046A1, “G9a INHIBITOR” (RIKEN, priority 2019, published 2023):
pIC50: −log10 of the molar value.

The compounds below were run against T1, recombinant human G9a protein (Homo sapiens, UniProt Q96KQ7) (assay: G9a inhibitory activity test (ALPHA)). Conditions: read-out: Inhibitory activity (G9a IC50).
T1 construct: purchased BPS Bioscience Inc. #51001
T1 sequence (Q96KQ7 785-1210 limits assumed): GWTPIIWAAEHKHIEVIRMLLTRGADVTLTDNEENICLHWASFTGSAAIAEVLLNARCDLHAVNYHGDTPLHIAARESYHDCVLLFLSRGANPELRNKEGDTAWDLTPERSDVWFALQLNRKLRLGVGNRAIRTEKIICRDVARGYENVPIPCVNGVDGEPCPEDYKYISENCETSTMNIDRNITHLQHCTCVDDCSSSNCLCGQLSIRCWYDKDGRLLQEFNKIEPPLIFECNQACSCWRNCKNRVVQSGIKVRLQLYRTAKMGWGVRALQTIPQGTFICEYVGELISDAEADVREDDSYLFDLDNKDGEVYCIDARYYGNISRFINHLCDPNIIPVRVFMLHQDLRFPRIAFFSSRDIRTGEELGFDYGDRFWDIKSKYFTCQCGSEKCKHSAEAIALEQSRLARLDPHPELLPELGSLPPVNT
Assay type: biochemical
Outline: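 Human G9a (0.05 to 0.1 nM) in Tris pH 9.0 buffer preincubated with compound 10 min, then biotinylated histone H3 (1-21) peptide and SAM mixed 1:1 from 500 nM and 150 μM solutions, 1 h at room temperature. H3K9me2 detected by AlphaLISA acceptor/streptavidin donor beads; IC50 from percent inhibition relative to no-compound and no-enzyme controls.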

Row | SMILES | pIC50
1 | Cc1c(C(=O)NC(CCC2CC2)C(=O)NCc2cccc(CN(C)C)c2)[nH]c2c1C(=O)CC(C)(C)C2 (stereo not shown) [Example 1-148] | > 7.30
2 | Cc1c(C(=O)NC(CCC2CC2)C(=O)NCc2ccc(CN(C)C)cc2)[nH]c2c1C(=O)CC(C)(C)C2 (stereo not shown) [Example 1-149] | > 7.30
3 | CCCC[C@@H](NC(=O)c1[nH]c2c(c1C)C(=O)CC(C)(C)C2)C(=O)N[C@@H](C)c1ccccc1 [Example 2-2, 3,6,6-trimethyl-4-oxo-N-((R)-1-oxo-1-(((S)-1-phenylethyl)amino)hexan-2-yl)-4,5,6,7-tetrahydro-1H-indol-2-carboxamide] | ≤ 6.70
4 | CCCC[C@H](NC(=O)c1[nH]c2c(c1C)C(=O)CC(C)(C)C2)C(=O)N[C@H](C)c1ccccc1 [Example 2-3] | 6.70 to 7.30
5 | CCCC[C@@H](NC(=O)c1[nH]c2c(c1C)C(=O)CC(C)(C)C2)C(=O)N[C@H](C)c1ccccc1 [Example 2-4] | ≤ 6.70
6 | CCCCC(NC(=O)c1[nH]c2c(c1C)C(=O)CC(C)(C)C2)C(=O)N[C@@H](CO)c1ccccc1 (stereo partly drawn) [Example 3-1, N-(1-(((R)-2-hydroxy-1-phenylethyl)amino)-1-oxohexan-2-yl)-3,6,6-trimethyl-4-oxo-4,5,6,7-tetrahydro-1H-indole-2-carboxamide] | 6.70 to 7.30
7 | CCCCC(NC(=O)c1[nH]c2c(c1C)C(=O)CC(C)(C)C2)C(=O)N[C@H](CO)c1ccccc1 (stereo partly shown) [Example 3-2] | ≤ 6.70
8 | CCCCC(NC(=O)c1[nH]c2c(c1C)C(=O)CC(C)(C)C2)C(=O)NCc1cccc(CN(C)C)n1 (stereo not shown) [Example 4, N-[1-[[6-[(dimethylamino)methyl]pyridine-2yl]methylamino]-1-oxohexan-2-yl]-3,6,6-trimethyl-4-oxo-5,7-dihydro-1H-indole-2-carboxamide] | ≤ 6.70
9 | CCCCC(NC(=O)c1[nH]c2c(c1C)C(=O)CC(C)(C)C2)C(=O)Nc1ccccc1C(F)F (stereo not shown) [Example 5-1, N-[1-[2-(difluoromethyl)anilino]-1-oxohexan-2-yl]-3,6,6-trimethyl-4-oxo-5,7-dihydro-1H-indole-2-carboxamide] | ≤ 6.70
10 | CCCCC(NC(=O)c1[nH]c2c(c1C)C(=O)CC(C)(C)C2)C(=O)Nc1ccc2c(c1)CCN(C)C2 (stereo not shown) [Example 5-2] | ≤ 6.70
11 | CCCCC(NC(=O)c1[nH]c2c(c1C)C(=O)CC(C)(C)C2)C(=O)Nc1ccccc1CN(C)C (stereo not shown) [Example 5-3] | ≤ 6.70
12 | CCc1cc(C)ncc1NC(=O)C(CCC1CC1)NC(=O)c1[nH]c2c(c1C)C(=O)CC(C)(C)C2 (stereo not shown) [Example 6-1, N-[4-cyclopropyl-1-[(4-ethyl-6-methylpyridin-3-yl)amino]-1-oxobutan-2-yl]-3,6,6-trimethyl-4-oxo-5,7-dihydro-1H-indole-2-carboxamide] | > 7.30
13 | CCc1ccncc1NC(=O)C(CCC1CC1)NC(=O)c1[nH]c2c(c1C)C(=O)CC(C)(C)C2 (stereo not shown) [Example 6-2] | > 7.30
14 | CCCCC(NC(=O)c1[nH]c2c(c1C)C(=O)CC(C)(C)C2)C(=O)NCc1cccc(CN(C)CCN(C)C)n1 (stereo not shown) [Example 6-3] | 6.70 to 7.30
15 | Cc1ccncc1NC(=O)C(CCC1CC1)NC(=O)c1[nH]c2c(c1C)C(=O)CC(C)(C)C2 (stereo not shown) [Example 6-4] | 6.70 to 7.30
16 | Cc1ccc(NC(=O)C(CCC2CC2)NC(=O)c2[nH]c3c(c2C(C)C)C(=O)CC(C)(C)C3)cn1 (stereo not shown) [Example 6-5] | 6.70 to 7.30
17 | CCc1ncccc1NC(=O)C(CCC1CC1)NC(=O)c1[nH]c2c(c1C)C(=O)CC(C)(C)C2 (stereo not shown) [Example 6-6] | 6.70 to 7.30
18 | Cc1c(C(=O)NC(CCC2CC2)C(=O)Nc2ccc(Cl)nc2)[nH]c2c1C(=O)CC(C)(C)C2 (stereo not shown) [Example 6-7] | ≤ 6.70
19 | Cc1c(C(=O)NC(CCC2CC2)C(=O)Nc2ccc(C(F)(F)F)nc2)[nH]c2c1C(=O)CC(C)(C)C2 (stereo not shown) [Example 6-8] | 6.70 to 7.30
20 | Cc1c(C(=O)NC(CCC2CC2)C(=O)Nc2ccccn2)[nH]c2c1C(=O)CC(C)(C)C2 (stereo not shown) [Example 6-9] | ≤ 6.70

Row | SMILES | pIC50
21 | CCc1c(C(=O)NC(CCC2CC2)C(=O)Nc2ccc(C)nc2)[nH]c2c1C(=O)CC(C)(C)C2 (stereo not shown) [Example 6-11] | 6.70 to 7.30
22 | Cc1c(C(=O)NC(CCC2CC2)C(=O)Nc2ccc(F)nc2)[nH]c2c1C(=O)CC(C)(C)C2 (stereo not shown) [Example 6-12] | 6.70 to 7.30
23 | Cc1c(C(=O)NC(CCC2CC2)C(=O)Nc2ccc(C#N)nc2)[nH]c2c1C(=O)CC(C)(C)C2 (stereo not shown) [Example 6-13] | ≤ 6.70
24 | Cc1cc(C)c(NC(=O)C(CCC2CC2)NC(=O)c2[nH]c3c(c2C)C(=O)CC(C)(C)C3)cn1 (stereo not shown) [Example 6-14] | 6.70 to 7.30
25 | CCc1cc(Br)ncc1NC(=O)C(CCC1CC1)NC(=O)c1[nH]c2c(c1C)C(=O)CC(C)(C)C2 (stereo not shown) [Example 6-15] | > 7.30
26 | Cc1c(C(=O)NC(CCC2CC2)C(=O)Nc2cccnc2)[nH]c2c1C(=O)CC(C)(C)C2 (stereo not shown) [Example 6-16] | ≤ 6.70
27 | Cc1c(C(=O)NC(CCC2CC2)C(=O)NCc2ccccc2)[nH]c2c1C(=O)CC(C)(C)C2 (stereo not shown) [Example 6-18] | 6.70 to 7.30
28 | Cc1c(C(=O)NC(CCC2CC2)C(=O)N(C)Cc2ccccc2)[nH]c2c1C(=O)CC(C)(C)C2 (stereo not shown) [Example 6-19] | ≤ 6.70
29 | Cc1c(C(=O)NC(CCC2CC2)C(=O)N(C)Cc2ccc(CN(C)C)cc2)[nH]c2c1C(=O)CC(C)(C)C2 (stereo not shown) [Example 6-20] | > 7.30
30 | CCCCC(NC(=O)c1[nH]c2c(c1C)C(=O)CC(C)(C)C2)C(=O)NCc1ccc(C(=O)OC)cc1 (stereo not shown) [Example 6-21] | ≤ 6.70
31 | CCCCC(NC(=O)c1[nH]c2c(c1C)C(=O)CC(C)(C)C2)C(=O)Nc1cnccc1CC (stereo not shown) [Example 6-22] | 6.70 to 7.30
32 | CCCCC(NC(=O)c1[nH]c2c(c1C)C(=O)CC(C)(C)C2)C(=O)Nc1cccnc1CC (stereo not shown) [Example 6-23] | ≤ 6.70
33 | Cc1c(C(=O)NC(CCC2CCC2)C(=O)Nc2ccccc2)[nH]c2c1C(=O)CC(C)(C)C2 (stereo not shown) [Example 6-24] | ≤ 6.70
34 | Cc1c(C(=O)NC(CCC(C)C)C(=O)Nc2ccccc2)[nH]c2c1C(=O)CC(C)(C)C2 (stereo not shown) [Example 6-25] | ≤ 6.70
35 | Cc1c(C(=O)N[C@@H](CCC2CC2)C(=O)NC2CCN(C)CC2)[nH]c2c1C(=O)CC(C)(C)C2 [Example 6-27] | 6.70 to 7.30
36 | Cc1c(C(=O)NC(C(=O)Nc2ccc(OC3CCN(C)CC3)nc2)c2ccccc2Cl)[nH]c2c1C(=O)CC(C)(C)C2 (stereo not shown) [Example 6-28] | ≤ 6.70
37 | Cc1c(C(=O)NC(C(=O)Nc2ccc(OC3CCN(C)CC3)nc2)c2ccc(Cl)cc2)[nH]c2c1C(=O)CC(C)(C)C2 (stereo not shown) [Example 6-29] | ≤ 6.70
38 | CCCC[C@H](NC(=O)c1[nH]c2c(c1C)C(=O)CC(C)(C)C2)C(=O)Nc1ccc(OC2CCN(C)CC2)nc1 [Example 6-31] | > 7.30
39 | CCCC[C@H](NC(=O)c1[nH]c2c(c1CC)C(=O)CC(C)(C)C2)C(=O)Nc1ccccc1 [Example 6-35] | 6.70 to 7.30
40 | CCCC[C@H](NC(=O)c1[nH]c2c(c1C(C)C)C(=O)CC(C)(C)C2)C(=O)Nc1ccccc1 [Example 6-36] | 6.70 to 7.30

Row | SMILES | pIC50
41 | CCCC[C@H](NC(=O)c1[nH]c2c(c1CCC)C(=O)CC(C)(C)C2)C(=O)Nc1ccccc1 [Example 6-37] | ≤ 6.70
42 | CCCC[C@H](NC(=O)c1[nH]c2c(c1C)C(=O)CC(C)(C)C2)C(=O)N[C@@H](CC)c1ccccc1 [Example 6-38] | > 7.30
43 | CCCC[C@H](NC(=O)c1[nH]c2c(c1CC)C(=O)CC(C)(C)C2)C(=O)N[C@@H](CC)c1ccccc1 [Example 6-39] | 6.70 to 7.30
44 | CCCC[C@H](NC(=O)c1[nH]c2c(c1CC)C(=O)CC(C)(C)C2)C(=O)N[C@@H](C)c1ccccc1 [Example 6-40] | 6.70 to 7.30
45 | CCCC[C@H](NC(=O)c1[nH]c2c(c1C(C)C)C(=O)CC(C)(C)C2)C(=O)N[C@@H](C)c1ccccc1 [Example 6-41] | 6.70 to 7.30
46 | CCCC[C@H](NC(=O)c1[nH]c2c(c1CCC)C(=O)CC(C)(C)C2)C(=O)N[C@@H](C)c1ccccc1 [Example 6-42] | 6.70 to 7.30
47 | CCCC[C@H](NC(=O)c1[nH]c2c(c1C)C(=O)CC1(CCCCC1)C2)C(=O)N[C@@H](C)c1ccccc1 [Example 6-43] | ≤ 6.70
48 | CCCC[C@H](NC(=O)c1[nH]c2c(c1C)C(=O)CC1(CCOCC1)C2)C(=O)N[C@@H](C)c1ccccc1 [Example 6-44] | ≤ 6.70
49 | CCCC[C@H](NC(=O)c1[nH]c2c(c1C)C(=O)CC(C)(C)C2)C(=O)N[C@@H](CO)c1ccccc1 [Example 6-45] | 6.70 to 7.30
50 | CCCC[C@H](NC(=O)c1[nH]c2c(c1CC)C(=O)CC(C)(C)C2)C(=O)N[C@@H](CO)c1ccccc1 [Example 6-46] | 6.70 to 7.30
51 | CCCC[C@H](NC(=O)c1[nH]c2c(c1C)C(=O)CC(C)(C)C2)C(=O)NC(c1ccccc1)C(C)C (stereo partly shown) [Example 6-47] | > 7.30
52 | CCCC[C@H](NC(=O)c1[nH]c2c(c1C)C(=O)CC(C)(C)C2)C(=O)Nc1cccc(N2CCN(C)CC2)c1 [Example 6-48] | ≤ 6.70
53 | COc1ccc(NC(=O)C(CCC2CC2)NC(=O)c2ccc(-c3ccncc3)cc2C)cn1 (stereo not shown) [Example 6-50] | ≤ 6.70
54 | COc1ccc(NC(=O)C(CCC2CC2)NC(=O)Cc2cccc3ccccc23)cn1 (stereo not shown) [Example 6-53] | ≤ 6.70
55 | COc1ccc(NC(=O)C(CCC2CC2)NC(=O)c2nc(-c3ccccc3)sc2C)cn1 (stereo not shown) [Example 6-54] | ≤ 6.70
56 | COc1ccc(NC(=O)C(CCC2CC2)NC(=O)c2ccc(Nc3ccncc3)nc2)cn1 (stereo not shown) [Example 6-56] | ≤ 6.70
57 | COc1ccc(NC(=O)C(CCC2CC2)NC(=O)c2ccc(Nc3ccncc3)c(C)c2)cn1 (stereo not shown) [Example 6-57] | > 7.30
58 | COc1ccc(NC(=O)C(CCC2CC2)NC(=O)c2ccc(-n3ccc4cnccc43)cc2)cn1 (stereo not shown) [Example 6-58] | 6.70 to 7.30
